Laboratory results as given in patent US20230355670A1, “Methods of activating cytotoxic leukocytes using PTP1B and PTPN2 inhibitors” (Monash University, priority 2019, published 2023).

Tests used:
[1] = tested on: HER-2-E0771 mammary tumour cells; test: Tumour growth of HER-2-E0771 mammary tumours in HER-2 TG mice after adoptive transfer of control or Ptpn2-/- HER-2 CAR T cells, with MSI-1436 treatment; format: in vivo; conditions: MSI-1436 5 mg/kg intraperitoneally on days 1, 4 and 7 post adoptive transfer of total 5×10^6 control or Ptpn2-/- HER-2 CAR T cells; versus saline; female HER-2 TG mice
Protocol: HER-2-E0771 mammary tumour cells (2×10^5) were injected into the fourth inguinal mammary fat pads of female HER-2 TG mice. Seven days after tumour injection HER-2 TG mice received total body irradiation (4 Gy) followed by the adoptive transfer of total 5×10^6 HER-2 CAR T cells (=0.8×10^6 viable mCherry^+HER-2 CAR^+CD8^+CD44^hiCD62L^hi T cells) control (ctrl) or Ptpn2^−/− HER-2 CAR CD8 T cells (PTPN2 had been deleted by CRISPR-RNP). HER-2 mice were treated with MSI-1436 (5 mg/kg intraperitoneally) or saline on days 1, 4, and 7 post adoptive transfer and tumour growth was monitored. Significance in was determined using 2-way ANOVA Test; ****p<0.0001.

[2] = tested on: HER-2-E0771 mammary tumour cells; test: Tumour growth of HER-2-E0771 mammary tumours in HER-2 TG mice after adoptive transfer of HER-2 CAR T cells, with MSI-1436 treatment; format: in vivo; conditions: MSI-1436 5 mg/kg intraperitoneally on days 1, 4, 7, 10, 13, 16 and 19 post adoptive transfer of total 20×10^6 HER-2 CAR T cells; versus saline; no IL-2; female HER-2 TG mice
Protocol: HER-2-E0771 mammary tumour cells (2×10^5) were injected into the fourth inguinal mammary fat pads of female HER-2 TG mice. Seven days after tumour injection HER-2 TG mice received total body irradiation (4 Gy) followed by the adoptive transfer of total 20×10^6 HER-2 CAR T cells (=6×10^6 viable mCherry^+HER2 CAR^+CD8^+CD44^hiCD62L^hi T cells) generated from Ptp1b^fl/fl versus Lck-Cre;Ptp1b^fl/fl splenocytes; mice were not administered IL-2. Mice were treated with PTP1B specific allosteric inhibitor MSI-1436 (5 mg/kg intraperitoneally) or saline on days 1, 4, 7, 10, 13, 16 and 19 post adoptive transfer and tumour growth was monitored. Representative results (means±SEM) from at least two independent experiments are shown. Significance was determined using 2-way ANOVA Test; *p<0.05 ****p<0.0001.
HER-2-E0771 mammary tumour cells (2×10^5) were injected into the fourth inguinal mammary fat pads of female HER-2 TG mice. […] Mice were treated with PTP1B specific allosteric inhibitor MSI-1436 (5 mg/kg intraperitoneally) or saline on days 1, 4, 7, 10, 13, 16 and 19 post adoptive transfer and tumour growth was monitored. […] Significance was determined using 2-way ANOVA Test; *p<0.05, ****p<0.0001.

CC(C)[C@@H](CC[C@@H](C)[C@H]1CC[C@H]2[C@@H]3[C@H](O)C[C@H]4C[C@@H](NCCCNCCCCNCCCN)CC[C@]4(C)[C@H]3CC[C@]12C)OS(=O)(=O)O [MSI-1436, Trodusquemine]
tumour growth (activity of CAR T cells in vivo) [1]: ‘supercharges’ CAR T cells in vivo
tumour growth (tumour-specific activity of HER2 CAR T cells in vivo) [2]: Enhances the Tumour-Specific Activity of HER2 CAR T Cells In Vivo
